This series has as its system Rattus norvegicus.
[1] abbreviates: short-term, duration: 28 days, oral, gavage, F, Sprague-Dawley, Clinical Observation: Locomotor activity decrease, Crouching position + Functional Observational Battery: Reactivity decrease + Body Weight ….
Where [2] appears, read: short-term, duration: 28 days, oral, gavage, M, Sprague-Dawley, Clinical Observation: Locomotor activity decrease, Crouching position + Functional Observational Battery: Reactivity decrease + Body Weight ….
Setting [3] is: short-term, duration: 28 days, oral, gavage, F, Sprague-Dawley, Clinical Observation: Staggering gait Locomotor activity decrease, Lacrimation Prone position Loose stool + Functional Observational Battery….
The mark [4] stands for this setting: short-term, duration: 28 days, oral, gavage, M, Sprague-Dawley, Clinical Observation: Staggering gait Locomotor activity decrease, Lacrimation Prone position Loose stool + Functional Observational Battery….
Setting [5] is: short-term, duration: 28 days, oral, gavage, F, Sprague-Dawley, Clinical Observation: Staggering gait + Body Weight Changes: decrease, Gain decrease + Urinalysis: pH decrease, Protein decrease, Volume ….
The mark [6] stands for this setting: short-term, duration: 28 days, oral, gavage, M, Sprague-Dawley, Clinical Observation: Staggering gait + Body Weight Changes: decrease, Gain decrease + Urinalysis: pH decrease, Protein decrease, Volume ….
Where [7] appears, read: subchronic, oral, gavage, M, Sprague-Dawley, Clinical Observation: Salivation PtosisReddish urine + Functional Observational Battery: Salivation Coordination of movement, abnormal ….
The mark [8] stands for this setting: short-term; duration: 28 days; oral; gavage; M; Sprague-Dawley; Deaths/5) + Body Weight Changes: decrease + Food Consumption: decrease + Urinalysis: Urine volume decrease, Uosm increase + Hematology: MCH ….

NOEL, LOEL and NOAEL data for 35 compounds are collected here from EPA's ToxValDB 9.5.

With `Clc1ccc(OCOCC#CI)cc1` [1-Chloro-4-(((3-iodo-2-propynyl)oxy)methoxy)benzene], for the setting “subchronic, oral, gavage, M, Sprague-Dawley, Clinical Observation: Salivation Loose stool + Body Weight Changes: decreaseor decrease(trend) + Food Consumption: decrease + Hematology: …”, the NOEL was 8 mg/kg-day.
Turning to `O=C1c2ccccc2C(=O)c2c(Cl)cccc21` [1-Chloroanthraquinone], the NOEL (short-term, duration: 28 days, oral, gavage, M/F, Sprague-Dawley, Clinical Observation: Brown urine + Functional Observational Battery: Landing foot splay decrease, Locomotor activity decrease + Food …) was less than 4 mg/kg-day.
In the case of `Clc1cccc2ccccc12` [1-Chloronaphthalene], under setting [1], the LOEL was 100 mg/kg-day and the NOEL was determined as 30 mg/kg-day. Under setting [2], the LOEL is 100 mg/kg-day and the NOEL is 30 mg/kg-day.
`CN1CCNCC1` [1-Methylpiperazine]: the NOEL (subchronic, oral, gavage, M, Sprague-Dawley, Body Weight Changes: Gain decrease(trend)Gain rate decrease + Hematology: WBC decrease(trend)RET decrease, Eosinophil ratio decrease + Blood…) was 80 mg/kg-day.
For the compound `CCNc1cccc2ccccc12` [1-Naphthalenamine, N-ethyl-], the NOEL (short-term, duration: 28 days, oral, gavage, M/F, Sprague-Dawley, Deaths + Clinical Observation: Brown urine Soft feces + Functional Observational Battery: Motor activity decrease + Body Weight Changes: …) stood at 12 mg/kg-day.
A word on the NOAEL: it is the highest dose or exposure tested at which no adverse effect was seen. Regarding `CCC[N+](=O)[O-]` [1-Nitropropane], the no observed adverse effect level (NOAEL) (short-term, duration: 28 days, oral, gavage, M/F, Sprague-Dawley, Deaths + Clinical Observation: Salivation Red/brown staining around the mouth Hunched posture + Body Weight Changes: Body weight gain …) came out at 30 mg/kg-day.
As for `NC(=O)Nc1ccccc1` [1-Phenylurea], the LOEL by setting is: under setting [3], 400 mg/kg-day; under setting [4], 200 mg/kg-day. The NOEL by setting is: under setting [3], 200 mg/kg-day; under setting [4], 100 mg/kg-day.
For the compound `CCCCCCCCCCCCC(CO)CCCCCCCCCC` (stereo unspecified) [1-Tetradecanol, 2-decyl-], under “subchronic, oral, gavage, M, Sprague-Dawley, Urinalysis: Occult blood + Hematology: PT increase, APTT increase + Blood Chemistry: LDH increase”, the no observed adverse effect level (NOAEL) was 62.5 mg/kg-day.
As to `CC1(C)COC(=O)C1O` (stereo unspecified) [2(3H)-Furanone, dihydro-3-hydroxy-4,4-dimethyl-], the no observed adverse effect level (NOAEL) (short-term, duration: 28 days, oral, gavage, M, Sprague-Dawley, Blood Chemistry: K increase) was determined as 200 mg/kg-day.
As for `O=C(Nc1ccccc1SSc1ccccc1NC(=O)c1ccccc1)c1ccccc1` [2,2'-Dibenzoylaminodiphenyl disulfide], the NOEL (subchronic, oral, gavage, M, Sprague-Dawley, Clinical Observation: Salivation + Blood Chemistry: ALT increase, Glu increase + Absolute Organ Weight: Liver increase + Relative Organ …) came to 300 mg/kg-day.
In the case of `Cc1cc(Cc2cc(C)cc(C(C)(C)C)c2O)c(O)c(C(C)(C)C)c1` [2,2'-Methylenebis(4-methyl-6-tert-butylphenol)], the NOEL is less than 104 mg/kg-day (subchronic, oral, diet, F, Wistar, Deaths: Survival rate.6 (45% % ).0 (20% % ) + Body Weight Changes: decrease + Food Consumption: decrease + Hematology: Hgb decrease RBC …); less than 0.12% (subchronic, oral, diet, M/F, Wistar, Deaths: Survival rate.6 (45% % ).0 (20% % ) + Body Weight Changes: decrease + Food Consumption: decrease + Hematology: Hgb decrease RBC …); 1.92 mg/kg-day (subchronic, oral, diet, M/F, Wistar, Hematology: Hgb increasemg/kg/ + Blood Chemistry: Cho increasemg/kg/ + Absolute Organ Weight: Liver increasemg/kg/ + Relative Organ …).
`Nc1ccccc1OCCOc1ccccc1N` [2,2'-[Ethane-1,2-diylbis(oxy)]dianiline]: for the setting “short-term, duration: 28 days, oral, gavage, M/F, Blood Chemistry: Alb increase, T-Bil increase, TG decrease, GPT increase, TP increase + Organ Weight: Liver increase, Kidney increase + …”, the NOEL was less than 50 mg/kg-day.
As for `O=Cc1cccc(Cl)c1Cl` [2,3-Dichlorobenzaldehyde], the NOEL (short-term, duration: 28 days, oral, gavage, M/F, Clinical Observation: Salivation + Body Weight Changes: Body weight gain decrease + Blood Chemistry: GPT increase, A/G increase + Organ …) is less than 20 mg/kg-day.
Consider `NCCCC1OCC2(CO1)COC(CCCN)OC2` (stereo unspecified) [2,4,8,10-Tetraoxaspiro[5.5]undecane-3,9-dipropanamine], for which the NOEL (subchronic, oral, gavage, M, Sprague-Dawley, Clinical Observation: Locomotor activity decrease, Respiratory irregularity Prone position Salivation + Body Weight Changes: decrease1000…) was less than 40 mg/kg-day.
For the compound `CC(C)(C)CC(C)(C)c1cc(O)c(C(C)(C)CC(C)(C)C)cc1O` [2,5-Bis(1,1,3,3-tetramethylbutyl)hydroquinone], the NOEL (subchronic, oral, gavage, M, Sprague-Dawley, Clinical Observation: Soft stool Soiled perineal region + Body Weight Changes: Gain decrease + Food Consumption: increase + Hematology: Hgb …) came out at 10 mg/kg-day.
For `Nc1ccc([N+](=O)[O-])cc1O` [2-Amino-5-nitrophenol], under “subchronic, duration: 13 weeks, oral, gavage, M/F, Fischer 344, Deaths + Body Weight Changes: decrease + Absolute Organ Weight: Liver increase + Relative Organ Weight: Liver increase + Histopathology: …”, the NOEL was less than 100 mg/kg-day.
On to `CCC(C)=NO` [2-Butanone oxime], for which the NOEL reads like this: (subchronic, oral, drinking water, F, Fischer 344, Clinical Observation: Dark eyes Pale ears + Body Weight Changes: decrease + Water Consumption: decrease + Hematology: Hct decrease, Hgb …) less than 30 mg/kg-day; (subchronic, oral, drinking water, M/F, Fischer 344, Clinical Observation: Dark eyes Pale ears + Body Weight Changes: decrease + Water Consumption: decrease + Hematology: Hct decrease, Hgb …) less than 47.4 mg/kg-day.
`COc1ccc(OC)c(Cl)c1` [2-Chloro-1,4-dimethoxybenzene]: the LOEL runs as follows: under setting [5], 200 mg/kg-day; under setting [6], 200 mg/kg-day. Further, the NOEL reads like this: under setting [5], 40 mg/kg-day; under setting [6], 40 mg/kg-day; (subchronic, oral, gavage, M, Sprague-Dawley, Hematology: RBC decrease, MCV increase, MCH increase + Blood Chemistry: T-Cho increase, PL increase, Ca increase + Absolute Organ Weight: …) 30 mg/kg-day.
As to `Nc1ccc([N+](=O)[O-])cc1Cl` [2-Chloro-4-nitroaniline], under “subchronic, oral, gavage, Sprague-Dawley”, the NOEL was 100 mg/kg-day.
As to `CCCCC(CC)COC(=O)CS` (stereo unspecified) [2-Ethylhexyl thioglycolate], the no-observed-adverse-effect level (NOAEL) (short-term, duration: 28 days, oral, diet, M, Fischer 344, Hematology: WBC decrease Lymph decrease + Blood Chemistry: AST increase) turned out to be 0.2%.
As to `COc1ccc(C)cc1N` [2-Methoxy-5-methylaniline], for the setting “short-term, duration: 28 days, oral, gavage, M/F, Clinical Observation: Salivation + Body Weight Changes: Weight gain decrease + Food Consumption: decrease + Urinalysis: Occult blood RBC …”, the NOEL amounted to 2 mg/kg-day.
Regarding `CC(O)CC(C)(C)O` (stereo unspecified) [2-Methyl-2,4-pentanediol], the NOAEL (subchronic, duration: 90 days, oral, gavage, M/F, CD(SD), Deaths: None (there were dead animals by miss-dosing) + Water Consumption: increase + Urinalysis: pH decrease, S.G. increase + Hematology: …) turned out to be 450 mg/kg-day.
`C=CC(C)(C)O` [2-Methyl-3-buten-2-ol]: the no-observed-adverse-effect level (NOAEL) (short-term, duration: 28 days, oral, gavage, M/F, Wistar, Deaths + 'excluded + Clinical Observation: Sedation Ataxia Uncoordinated gait Salivation + Blood Chemistry: ALT increase, AST increase + …) was 50 mg/kg-day.
`COCCOCCOCCO` [2-[2-(2-Methoxyethoxy)ethoxy]ethanol]: where the note is “chronic, duration: 91 days, oral, drinking water, M/F, Sprague-Dawley, Deaths + Body Weight Changes: Body weight gain decrease + Food Consumption: decrease + Water Consumption: decrease + Absolute Organ Weight: …”, the NOAEL is 400 mg/kg-day.
Consider `Cc1ccc(Cl)c(Cl)c1` [3,4-Dichlorotoluene], for which, where the note is “subchronic, oral, gavage, M, Sprague-Dawley, Deaths + Clinical Observation: Death-1/6 on treatment day 15R + Body Weight Changes: decrease(tendency)Body weight gain decrease(tendency…”, the NOEL was found to be 100 mg/kg-day.
As to `Nc1cc(C(=O)O)ccc1Cl` [3-Amino-4-chlorobenzoic acid], the NOEL (subchronic, oral, gavage, M, Sprague-Dawley, Clinical Observation: Transient salivation + Histopathology: Mesentric lymph node-Granuloma R) turned out to be 200 mg/kg-day.
On to `CCO[Si](CCCN)(OCC)OCC` [3-Aminopropyltriethoxysilane], for which the no-observed-adverse-effect level (NOAEL) (chronic, duration: 91 days, oral, gavage, M/F, CD(SD), Deaths + Clinical Observation: Rales Wet and/or dried material (red, yellow, brown and/or clear) on various body surfaces Abnormal excreta…) turned out to be 200 mg/kg-day.
Consider `C=C(C)CCl` [3-Chloro-2-methylpropene], for which, where the note is “subchronic, duration: 13 weeks, oral, gavage, M/F, Fischer 344, Deaths + Clinical Observation: Rough coat>400 + Body Weight Changes: decrease + Histopathology: Liver-Inflammation, Chronic, Focal Liver-…”, the NOEL was 100 mg/kg-day.
With `O=C1OC(O)C(C(Cl)Cl)=C1Cl` (stereo unspecified) [3-Chloro-4-(dichloromethyl)-5-hydroxy-2(5H)-furanone], the NOAEL (chronic, duration: 18 weeks, oral, gavage, M/F, Wistar, Deaths + Clinical Observation: Emaciation Wheezy breathing Tangled fur Hypersalivation Dirty mouth surrounding Colored nostril discharges + …) is less than 30 mg/kg-day.
On to `CC(C)=CCO` [3-Methyl-2-buten-1-ol], for which the no-observed-adverse-effect level (NOAEL) (subchronic, duration: 90 days, oral, drinking water, M/F, Wistar, Body Weight Changes: Mean body weight decrease, Weight gain decrease + Food Consumption: decrease + Water Consumption: decrease + Urinalysis…) was determined as 152 mg/kg-day.
For the compound `O=C(O)c1cccc([N+](=O)[O-])c1` [3-Nitrobenzoic acid], under “subchronic, oral, gavage, M, Sprague-Dawley, Body Weight Changes: decrease + Hematology: RBC decrease + Blood Chemistry: TP decrease, A/G increase, Pi increase, K increase, Cl decrease…”, the NOEL amounted to 20 mg/kg-day.
For `COc1cc(NC(=O)CC(C)=O)c(OC)cc1Cl` [4'-Chloro-2',5'-dimethoxyacetoacetanilide], under setting [7], the no observed adverse effect level (NOAEL) turned out to be 40 mg/kg-day and the NOEL is 8 mg/kg-day.
As to `O=S(=O)(c1ccc(Cl)cc1)c1ccc(Cl)cc1` [4,4'-Dichlorodiphenyl sulfone], the NOEL (chronic, duration: 14 weeks, oral, diet, M/F, Fischer 344, Body Weight Changes: decrease + Food Consumption: decrease + Hematology: Hgb decrease, Plt increase + Blood Chemistry: TP increase, BUN …) was less than 2.34 mg/kg-day. Also, under setting [8], the no observed adverse effect level (NOAEL) was less than 50 mg/kg-day and the NOEL is less than 50 mg/kg-day.
Take `CCc1ncnc(Cl)c1Cl` [4,5-DICHLORO-6-ETHYLPYRIMIDINE]: the NOEL (short-term, duration: 28 days, oral, gavage, M/F, Deaths + Clinical Observation: Salivation Locomotor activity decrease, Ptosis + Body Weight Changes: Weight gain decrease + Food Consumption…) turned out to be 5 mg/kg-day.
As to `O=[N+]([O-])c1cc([As](=O)(O)O)ccc1O` [4-Hydroxy-3-nitrophenylarsonic acid], the NOEL (subchronic, duration: 13 weeks, oral, diet, M/F, Fischer 344, Deaths + Clinical Observation: Ruffled fur Hyperexcitability Ataxia Trembling Slight inactivity + Body Weight Changes: decrease + Relative …) was less than 4.8 mg/kg-day.
